According to ChEMBL document CHEMBL1201862, “PubChem BioAssay data set” (2004):
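96-well plates; 48 h exposure; 5 concentrations. Endpoints by linear interpolation between flanking doses. Not reached: highest tested concentration assigned. Abbreviation: GI50, concentration required for 50% inhibition of growth.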 The source made the active and inactive calls. Rule as the data show it: active = GI50 up to about 1.1 µM and inactive = higher.

Legend:
Test in all cases: NCI-60 cell line screen, 48 h
[1] = tested on: Malme-3M
[2] = tested on: ACHN
[3] = tested on: COLO 205
[4] = tested on: DMS-114
[5] = tested on: K562
[6] = tested on: DMS-273
[7] = tested on: OVCAR-5
[8] = tested on: SNB-78
[9] = tested on: M19-MEL
[10] = tested on: DLD-1
[11] = tested on: SR
[12] = tested on: KM12
[13] = tested on: SK-MEL-2
[14] = tested on: HOP-62
[15] = tested on: UACC-257
[16] = tested on: LOX IMVI

Measured: GI50

COc1ccccc1/C=C1\C(=O)N(C(=O)c2ccc(NC(C)=O)cc2)N=C1C
inactive: [1] > 100 µM | [2] > 100 µM | [3] > 100 µM | [4] > 100 µM | [5] > 100 µM | [6] > 100 µM | [7] > 100 µM | [8] > 100 µM | [9] > 100 µM | [10] > 100 µM | [11] > 100 µM | [12] > 100 µM | [13] > 100 µM | [14] > 100 µM | [15] > 100 µM | [16] > 100 µM

CN1C(c2ccccc2)CC(=NO)CC1c1ccccc1 (configuration not stated)
inactive: [1] 34.8 µM | [2] 41.4 µM | [3] 20.2 µM | [4] 25.7 µM | [5] 29.4 µM | [6] 28 µM | [7] 67.3 µM | [8] > 100 µM | [9] 37.5 µM | [10] 41.8 µM | [11] 26.9 µM | [12] 31.6 µM | [13] 53.5 µM | [14] > 100 µM | [15] 55.1 µM | [16] 19.7 µM

COc1ccc2c([nH]c3cc(O)c(C)cc32)c1C=O
inactive: [1] > 25 µM | [2] > 25 µM | [3] > 25 µM | [4] > 25 µM | [5] 14.6 µM | [6] > 25 µM | [7] > 25 µM | [8] > 25 µM | [9] > 25 µM | [10] > 25 µM | [11] 18.9 µM | [12] > 25 µM | [13] > 25 µM | [14] > 25 µM | [16] > 25 µM

C#CC1(O)CCC2[C@@H]3CCc4cc(Oc5nc(F)nc(-c6c7ccccc7c(SCC)n6CCC)n5)ccc4C3CC[C@@]21C (some centres not stated)
inactive: [1] > 100 µM | [2] > 100 µM | [3] > 100 µM | [4] 31.3 µM | [5] 51.4 µM | [6] > 100 µM | [7] > 100 µM | [8] > 100 µM | [9] > 100 µM | [10] > 100 µM | [11] 34.7 µM | [12] > 100 µM | [13] 19.9 µM | [14] > 100 µM | [15] > 100 µM | [16] 76 µM

N/C(=N\O)N/N=C/c1cccs1
inactive: [1] 55.8 µM | [2] 42.3 µM | [3] 55.7 µM | [4] 54.8 µM | [5] 86.9 µM | [6] > 100 µM | [7] 47.1 µM | [8] > 100 µM | [9] > 100 µM | [10] 59.6 µM | [11] 67.3 µM | [12] 49.1 µM | [13] 76.7 µM | [14] 24.7 µM | [15] > 100 µM

CC1(C)Cc2cc(C(=O)O)c3c(c2C1=O)COCC3
inactive: [1] > 100 µM | [2] > 100 µM | [3] > 100 µM | [4] > 100 µM | [5] > 100 µM | [6] > 100 µM | [7] > 100 µM | [8] > 100 µM | [9] > 100 µM | [10] > 100 µM | [11] > 100 µM | [12] > 100 µM | [13] > 100 µM | [14] > 100 µM | [15] > 100 µM | [16] > 100 µM

Cc1nnc(N/N=C2\C(=O)Nc3ccccc32)n1N
inactive: [1] > 100 µM | [2] > 100 µM | [3] 67.5 µM | [4] > 100 µM | [5] 29.6 µM | [6] > 100 µM | [7] > 100 µM | [8] > 100 µM | [9] > 100 µM | [10] > 100 µM | [11] > 100 µM | [12] > 100 µM | [13] > 100 µM | [14] > 100 µM | [15] > 100 µM | [16] > 100 µM

COc1ccc(/C=C2\CNC/C(=C\c3ccc(OC)cc3)C2=O)cc1
inactive: [1] > 100 µM | [2] > 100 µM | [3] 49.4 µM | [4] 45.8 µM | [5] 14.7 µM | [6] 23.2 µM | [7] > 100 µM | [8] 28.1 µM | [9] > 100 µM | [10] 21 µM | [11] 24.8 µM | [12] 15.9 µM | [13] > 100 µM | [14] > 100 µM | [15] 75.3 µM | [16] 4.22 µM

O=c1oc2cc(O)ccc2c2[nH]c3cc(O)ccc3c12
inactive: [1] 32.6 µM | [2] 22.7 µM | [3] 23.9 µM | [4] 21.1 µM | [5] 45.9 µM | [6] 21.6 µM | [8] 43.7 µM | [9] 27.9 µM | [10] 30.2 µM | [11] 21.2 µM | [12] 20.9 µM | [13] 19.1 µM | [14] 24.3 µM | [15] 35.2 µM | [16] 18.5 µM

CC(C)(C)C1CCC2c3c([nH]c4ccccc34)C3C(=O)N(c4ccccc4)C(=O)C3C2C1 (configuration not stated)
inactive: [1] 2.4 µM | [2] 4.94 µM | [3] 4.35 µM | [4] 6.15 µM | [5] 4.36 µM | [6] 3.34 µM | [7] > 100 µM | [8] 5.5 µM | [9] 7.66 µM | [10] 20.4 µM | [11] 6.27 µM | [12] 21.4 µM | [16] 3.79 µM

O=C(C[n+]1ccccc1)NNC(=O)/C(=C/c1ccc2c(c1)OCO2)NC(=O)c1ccccc1
inactive: [1] > 81.8 µM | [2] > 100 µM | [3] > 46.1 µM | [4] 25.5 µM | [5] > 77.4 µM | [6] 28.3 µM | [7] > 100 µM | [8] > 56.8 µM | [9] 41.7 µM | [10] 38.2 µM | [11] 18.2 µM | [12] 35.2 µM | [13] > 100 µM | [14] 44.4 µM | [15] > 100 µM | [16] 20.6 µM

COc1cc(Cn2c3ccccc3c3cc(C)c4c(c32)C=CC(C)(CCC=C(C)C)O4)cc2c1[nH]c1ccccc12 (configuration not stated) [CHRESTFOLINE C]
inactive: [1] > 100 µM | [2] > 100 µM | [3] > 100 µM | [4] > 100 µM | [5] > 100 µM | [6] > 100 µM | [7] > 100 µM | [8] > 100 µM | [9] > 100 µM | [10] > 100 µM | [11] > 100 µM | [12] > 100 µM | [13] > 100 µM | [14] > 100 µM | [15] > 100 µM | [16] > 100 µM

COc1cc2c(cc1OC)C1(c3ccc(Cl)cc3)ON=C(c3ccccc3)N1CS2 (configuration not stated)
inactive: [1] > 100 µM | [2] 91.8 µM | [3] > 100 µM | [4] > 100 µM | [5] 75.3 µM | [6] > 100 µM | [7] > 100 µM | [8] 4.56 µM | [9] > 100 µM | [10] > 100 µM | [11] 7.05 µM | [12] > 100 µM | [13] > 100 µM | [14] > 100 µM | [15] > 100 µM | [16] 30.1 µM
